Reference: patent US20070117770A1, “Human ribosomal DNA (rDNA) and ribosomal RNA (rRNA) nucleic acids and uses thereof” (Cylene Pharmaceuticals, Inc., priority 2005, published 2007)

Key:
CaMKII(r) = test: Protein kinase inhibition assay; assay type: biochemical, rat; details: 2.5 μM
Method: (§1) Certain compounds were tested for activity in protein kinase inhibition assays. All substrates were dissolved and diluted to working stocks in de-ionized water, apart from histone H1 (10× working stock in 20 mM MOPS pH 7.0), PDKtide (10× working stock in 50 mM Tris pH 7.0) ATF2 (which is typically stored at a 20× working stock in 50 mM Tris pH 7.5, 150 mM NaCl, 0.1 mM EGTA, 0.03% Brij-35, 50% glycerol, 1 mM benzamidine, 0.2 mM PMSF and 0.1% R-mercaptoethanol), KKLNRTLSFAEPG (SEQ ID NO:203) and RRRLSFAEPG (SEQ ID NO:204) (50 mM HEPES pH 7.4) and GGEEEEYFELVKKKK (SEQ ID NO:205) (20 mM MOPS pH 7.0). All kinases were pre-diluted to a 10× working concentration prior to addition into the assay. The composition of the dilution buffer for each kinase is detailed below.
In a final reaction volume of 25 μl, CaMKII (r) (5-10 mU) is incubated with 40 mM HEPES pH 7.4, 5 mM CaCl2, 30 μg/ml calmodulin, 30 μM KKLNRTLSVA (SEQ ID NO:212), 10 mM MgAcetate and [gamma-33P-ATP] (specific activity approx. 500 cpm/pmol, concentration as required). The reaction is initiated by the addition of the MgATP mix. After incubation for 40 minutes at room temperature, the reaction is stopped by the addition of 5 μl of a 3% phosphoric acid solution. […]

CSK(h) = CSK(h) (Homo sapiens, UniProt P41240); test: Protein kinase inhibition assay; assay type: biochemical; details: read-out: percent residual activity of CSK(h)
Method: as §1
In a final reaction volume of 25 μl, CSK (h) (5-10 mU) is incubated with 50 mM Tris pH 7.5, 0.1 mM EGTA, 0.1 mM Na3VO4, 0.1% R-mercaptoethanol, 0.1 mg/ml poly(Glu, Tyr) 4:1, 10 mM MnCl2, 10 mM MgAcetate and [gamma-33P-ATP] (specific activity approx. 500 cpm/pmol, concentration as required). The reaction is initiated by the addition of the MgATP mix. After incubation for 40 minutes at room temperature, the reaction is stopped by the addition of 5 μl of a 3% phosphoric acid solution. […]

EphA5(h) = EphA5(h) (Homo sapiens, UniProt P54756); test: Protein kinase inhibition assay; assay type: biochemical; details: read-out: percent residual activity of EphA5(h)
Method: as §1
(§2) In a final reaction volume of 25 μl, EphA5 (h) (5-10 mU) is incubated with 8 mM MOPS pH 7.0, 0.2 mM EDTA, 2.5 mM MnCl2, 0.1 mg/ml poly (Glu, Tyr) 4:1, 10 mM MgAcetate and [gamma-33P-ATP] (specific activity approx. 500 cpm/pmol, concentration as required). The reaction is initiated by the addition of the MgATP mix. After incubation for 40 minutes at room temperature, the reaction is stopped by the addition of 5 μl of a 3% phosphoric acid solution. 10 μl of the reaction is then spotted onto a Filtermat A and washed three times for 5 minutes in 75 mM phosphoric acid and once in methanol prior to drying and scintillation counting.

FGFR1(h) = FGFR1(h) (Homo sapiens, UniProt P11362); test: Protein kinase inhibition assay; assay type: biochemical; details: read-out: percent residual activity of FGFR1(h)
Method: as §1
as §2, with “FGFR1” for “EphA5”, “250 μM KKKSPGEYVNIEFG (SEQ ID NO:207),” for “2.5 mM MnCl2, 0.1 mg/ml poly (Glu, Tyr) 4:1,”, “[y-33P-ATP]” for “[gamma-33P-ATP]”, “MGATP” for “MgATP”, “P30 filtermat” for “Filtermat A”

Pim-1(h) = Pim-1(h) (Homo sapiens, UniProt P11309); test: Protein kinase inhibition assay; assay type: biochemical; details: read-out: percent residual activity of Pim-1(h)
Method: as §1
as §2, with “Pim-1” for “EphA5”, “100 μM KKRNRTLTV (SEQ ID NO:219),” for “2.5 mM MnCl2, 0.1 mg/ml poly (Glu, Tyr) 4:1,”, “P30 filtermat” for “Filtermat A”

HCT116 cells = test: Protein synthesis (3H-methionine incorporation); assay type: cell-based; details: at the tested concentrations
Method: Effects of compound A-1 and compound B-1 on DNA synthesis, RNA synthesis and protein synthesis were determined in HCT116 cells. HCT116 cells were plated overnight at 100,000 cells per mL. Next day cells were treated with increasing amounts of either compound A-1 or compound B-1 followed by one hour incubation with BrdU label (from a BrdU Cell proliferation Assay Kit, Calbiochem) to monitor DNA synthesis; […] of ^3H-uridine to monitor total RNA synthesis; […] of ^3H-methionine to monitor protein synthesis or plain media to monitor RNA Polymerase II-dependent RNA synthesis. DNA synthesis was assessed using a BrdU-ELISA (BrdU Cell proliferation Assay Kit, Calbiochem). To measure total RNA synthesis, total RNA from treated cells was isolated with a RNease kit (QIAGEN), levels of total RNA were assessed with Ribogreen reagent (Invitrogen) and the newly synthesized tritiated RNA was measured in a scintillation Counter (Perkin Elmer). To measure effects on protein synthesis, cells were lysed in a RIPA buffer, and total protein was precipitated with 10% TCA on a glass-filters. Newly synthesized tritiated protein was measured in a scintillation Counter (Perkin Elmer). Effects of drugs on […] RNA synthesis were assessed by monitoring levels of a c-myc mRNA, which has a relatively short half-life of approximately 30 minutes, by Taqman qRT-PCR (ABI).

Pim-1(h), sequence (P11309 whole entry): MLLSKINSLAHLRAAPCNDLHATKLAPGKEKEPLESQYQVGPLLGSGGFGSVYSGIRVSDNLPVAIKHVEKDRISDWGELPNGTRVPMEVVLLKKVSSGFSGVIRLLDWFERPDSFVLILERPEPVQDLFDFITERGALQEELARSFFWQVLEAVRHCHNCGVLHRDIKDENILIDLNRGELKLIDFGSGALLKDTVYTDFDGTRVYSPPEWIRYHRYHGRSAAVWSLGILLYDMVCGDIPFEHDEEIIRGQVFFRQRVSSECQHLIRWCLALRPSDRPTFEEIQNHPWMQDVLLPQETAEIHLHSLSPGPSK
FGFR1(h), sequence (P11362 22-822): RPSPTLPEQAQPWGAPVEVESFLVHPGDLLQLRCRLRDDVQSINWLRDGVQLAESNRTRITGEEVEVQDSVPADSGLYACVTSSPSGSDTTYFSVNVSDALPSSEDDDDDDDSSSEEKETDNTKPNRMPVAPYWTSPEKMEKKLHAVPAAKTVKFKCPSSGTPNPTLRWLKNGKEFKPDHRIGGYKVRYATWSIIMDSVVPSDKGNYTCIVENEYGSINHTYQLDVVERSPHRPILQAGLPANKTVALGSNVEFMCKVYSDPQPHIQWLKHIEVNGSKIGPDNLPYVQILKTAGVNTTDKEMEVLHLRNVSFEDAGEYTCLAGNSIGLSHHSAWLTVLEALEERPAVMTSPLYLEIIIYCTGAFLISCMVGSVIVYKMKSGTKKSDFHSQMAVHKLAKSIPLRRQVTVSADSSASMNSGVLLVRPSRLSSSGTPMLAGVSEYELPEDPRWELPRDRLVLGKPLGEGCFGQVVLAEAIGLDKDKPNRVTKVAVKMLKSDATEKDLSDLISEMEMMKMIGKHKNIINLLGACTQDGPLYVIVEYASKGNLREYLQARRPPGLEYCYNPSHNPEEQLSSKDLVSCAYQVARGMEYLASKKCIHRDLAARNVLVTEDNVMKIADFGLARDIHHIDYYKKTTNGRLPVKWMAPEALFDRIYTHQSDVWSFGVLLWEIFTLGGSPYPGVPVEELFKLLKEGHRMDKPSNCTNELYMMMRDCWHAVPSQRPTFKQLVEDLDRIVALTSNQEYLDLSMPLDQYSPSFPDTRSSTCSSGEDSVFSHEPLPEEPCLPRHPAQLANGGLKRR
EphA5(h), sequence (P54756 25-1037): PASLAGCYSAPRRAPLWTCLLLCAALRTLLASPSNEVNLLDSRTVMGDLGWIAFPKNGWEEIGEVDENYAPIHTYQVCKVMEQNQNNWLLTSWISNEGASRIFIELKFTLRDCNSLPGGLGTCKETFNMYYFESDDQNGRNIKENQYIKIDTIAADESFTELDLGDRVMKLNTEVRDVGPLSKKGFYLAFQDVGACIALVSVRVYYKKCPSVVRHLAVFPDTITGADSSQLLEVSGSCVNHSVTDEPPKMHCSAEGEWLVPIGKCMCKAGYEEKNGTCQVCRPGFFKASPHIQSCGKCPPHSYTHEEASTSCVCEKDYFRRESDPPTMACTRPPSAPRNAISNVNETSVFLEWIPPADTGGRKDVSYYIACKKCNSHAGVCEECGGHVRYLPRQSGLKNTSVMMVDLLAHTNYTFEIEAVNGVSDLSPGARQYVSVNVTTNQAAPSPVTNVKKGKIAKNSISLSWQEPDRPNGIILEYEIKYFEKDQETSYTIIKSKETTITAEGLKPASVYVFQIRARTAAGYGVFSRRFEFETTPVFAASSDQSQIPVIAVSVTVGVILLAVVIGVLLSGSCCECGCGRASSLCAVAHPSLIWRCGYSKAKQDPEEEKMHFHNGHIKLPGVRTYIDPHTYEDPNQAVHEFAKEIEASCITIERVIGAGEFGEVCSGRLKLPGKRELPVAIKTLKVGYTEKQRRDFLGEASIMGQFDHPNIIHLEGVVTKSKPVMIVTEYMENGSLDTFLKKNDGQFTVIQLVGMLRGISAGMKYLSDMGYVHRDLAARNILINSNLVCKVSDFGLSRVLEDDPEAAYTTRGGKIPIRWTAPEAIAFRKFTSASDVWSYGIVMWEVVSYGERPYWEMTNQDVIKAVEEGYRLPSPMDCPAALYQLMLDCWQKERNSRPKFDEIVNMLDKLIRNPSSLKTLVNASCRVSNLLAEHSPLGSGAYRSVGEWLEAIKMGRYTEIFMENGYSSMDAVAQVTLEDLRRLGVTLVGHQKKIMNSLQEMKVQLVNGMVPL
CSK(h), sequence (P41240 whole entry): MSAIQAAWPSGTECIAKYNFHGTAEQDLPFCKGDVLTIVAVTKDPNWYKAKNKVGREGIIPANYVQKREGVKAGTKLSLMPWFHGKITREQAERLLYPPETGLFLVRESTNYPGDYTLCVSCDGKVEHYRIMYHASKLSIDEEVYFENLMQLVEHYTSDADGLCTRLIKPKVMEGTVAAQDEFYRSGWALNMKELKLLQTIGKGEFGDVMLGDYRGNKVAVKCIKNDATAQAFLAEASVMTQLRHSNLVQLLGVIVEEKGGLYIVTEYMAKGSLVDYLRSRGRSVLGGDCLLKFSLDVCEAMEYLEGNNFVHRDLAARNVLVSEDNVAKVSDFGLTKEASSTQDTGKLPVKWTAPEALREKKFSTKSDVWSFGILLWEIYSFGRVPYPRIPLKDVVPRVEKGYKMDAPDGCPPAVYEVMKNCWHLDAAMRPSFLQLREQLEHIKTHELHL

Row | Structure (SMILES) | percent residual activity of CaMKII(r) (CaMKII(r)) [%] | remaining activity at 2.5 µM (CSK(h)) [%] | remaining activity at 2.5 µM (EphA5(h)) [%] | remaining activity at 2.5 µM (FGFR1(h)) [%] | remaining activity at 2.5 µM (Pim-1(h)) [%] | effect on protein synthesis (HCT116 cells)
1 | CN1CCCC1CCNC(=O)c1cn2c3c(c(N4CCC(c5cnccn5)C4)c(F)cc3c1=O)Oc1cc3ccccc3cc1-2 (stereo not drawn) [Compound A-1] | 107 | 116 | 111 | 84 | 30 | no measureable effect
2 | CC(=O)N1CCN(c2ccc3c(=O)c(C(=O)NCCN4CCCC4)c4n(C)c5ccccc5n4c3n2)CC1 [Compound B-1] | 113 | 92 | 101 | 118 | 104 | no measureable effect
